Some test systems named below: RXF-631 renal; HOP-18 NSCLC; MDA-MB-231 breast; NCI/ADR-RES ovarian; MDA-MB-435; MCF7 breast; HS 578T breast; MDA-N; BT-549 breast; SN12K1 renal; P388/ADR leukemia.
What all share (test): NCI tumour cell line growth inhibition, 48 h

“And” between values parts separate entries of the source, which are not always exact repeats. Equal entries are not always repeated.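 48-hour exposure; five concentrations; linearly interpolated endpoints. GI50 is the concentration that inhibits growth by half. Definition used: TGI = concentration required for complete inhibition of growth.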

Turning to `COc1ccccc1/C=C1\CCC(CCN(C)C)(C2=CCCC2)C1=O` (stereo not given), the TGI in the assay on RXF-631 renal amounted to 29.8 µM; in the assay with HOP-18 NSCLC it was 85.3 µM.
In the assay on HOP-18 NSCLC, `Cc1ccc(-c2cc(-c3ccco3)c(C#N)c(=O)[nH]2)cc1` showed a TGI above 100 µM.
In the assay on HOP-18 NSCLC, `OC1c2ccccc2C2(O)C1C(c1ccccc1)C(c1ccccc1)C2(O)c1ccccc1` (stereo not given) displayed a TGI of 34 µM.
On to `CCCn1c(SC)nc(COC(=O)NC)c1COC(=O)NC`, for which the TGI in the assay on MDA-MB-231 breast, with NCI/ADR-RES ovarian, in the assay on MDA-MB-435, in the assay with MCF7 breast, with HS 578T breast and with MDA-N was above 100 µM throughout. Besides, the TGI in the assay on BT-549 breast was above 100 µM.
As for `O=C(/C=C/c1ccccc1)CC1OC(=O)c2ccccc21` (stereo not given), in the assay on HOP-18 NSCLC, the TGI turned out to be 78.4 µM.
For `CSC(CC(=O)O)C(=O)O` (stereo not given), the TGI in the assay on MDA-MB-231 breast, in the assay with NCI/ADR-RES ovarian, with MDA-MB-435, with MCF7 breast, in the assay with HS 578T breast and in the assay on MDA-N was above 100 µM throughout. The TGI with BT-549 breast was above 100 µM.
As to `CC(C)=CCC/C(C)=C/CC/C(C)=C/Cc1c(O)c2ccccc2oc1=O`, the TGI with HOP-18 NSCLC is above 100 µM.
In the assay with HOP-18 NSCLC, `NC1CCCCC1.[O]=[Ge].[O]=[Ge].[O]=[Ge][OH].[O]=[Ge][OH]` yielded a TGI above 100 µM.
In the case of `COC(=O)C1C(O)CC(c2ccccn2)N(Cc2ccccc2)C1c1ccccn1` (stereo not given), the TGI in the assay on RXF-631 renal and with HOP-18 NSCLC was above 100 µM throughout.
For the molecule `CC1CC2CC(=O)CC3(C1)C2CCCN3CCCO` (stereo not given), the TGI in the assay with RXF-631 renal and with HOP-18 NSCLC was above 100 µM in each case.
`COc1ccc(NC(=O)C(=O)Cc2nc3ccc([N+](=O)[O-])cc3[nH]c2=O)c(OC)c1` yielded a TGI in the assay with HOP-18 NSCLC above 100 µM.
`O=C(O)COc1ccc(O)c2c1C(=O)CCCC2=O`: the TGI in the assay on RXF-631 renal is above 100 µM.
`COc1ccc(-c2cc(=O)c3c(C)cc(C)nc3[nH]2)cc1`: the TGI in the assay with MDA-MB-231 breast is 67.5 µM; in the assay with NCI/ADR-RES ovarian, above 100 µM; in the assay on MDA-MB-435 it was above 100 µM; with MCF7 breast it was above 100 µM; in the assay with HS 578T breast it was above 100 µM; in the assay on MDA-N it was above 100 µM. In the assay with BT-549 breast, this molecule showed a TGI of 86.7 µM. For the same molecule, the results for the GI50 in the assay with MDA-MB-435 and with MDA-N were 29.1 µM and 33.2 µM, respectively.
In the case of `O=C(c1ccc(Cl)cc1)c1ccc(OCCCCCCCCCCOc2ccc(C(=O)c3ccc(Cl)cc3)cc2)cc1`, the TGI with RXF-631 renal is above 100 µM.
`O=C(Nc1cccs1)c1c(O)[nH]c(=S)[nH]c1=O`: the TGI in the assay on RXF-631 renal and with HOP-18 NSCLC was above 100 µM throughout.
With `COC[C@@H](N=CN1CCc2cc(OC)c(OC)cc2[C@@H]1C)C(C)(C)C`, the TGI in the assay on RXF-631 renal and in the assay with HOP-18 NSCLC was above 100 µM each time.
For `C=C(CCCCCCCCC)CC(=O)SCCNC(=O)CCNC(=O)C(O)C(C)(C)COP(=O)(O)OP(=O)(O)OCC1OC(n2cnc3c(N)ncnc32)C(O)C1OP(=O)(O)O` (stereo not given), the TGI in the assay with MDA-MB-231 breast was above 100 µM; in the assay with RXF-631 renal, above 100 µM; with NCI/ADR-RES ovarian, above 100 µM; in the assay on MDA-MB-435, 67.7 µM; in the assay on MCF7 breast, above 100 µM; in the assay with HOP-18 NSCLC, above 100 µM. The TGI with HS 578T breast is above 100 µM; with MDA-N, above 76.6 µM; with BT-549 breast, above 100 µM.
In the case of `CCOC(=O)C1(Br)C(c2ccccc2)NC(=O)NC1(C)Br` (stereo not given), the GI50 is 27.8 µM with MDA-MB-231 breast; 28.1 µM with NCI/ADR-RES ovarian; 20.5 µM in the assay on MDA-MB-435; 28.1 µM with MCF7 breast; 37.4 µM in the assay on HS 578T breast; 14 µM in the assay with BT-549 breast. The TGI was above 100 µM with MDA-MB-231 breast; above 100 µM in the assay on RXF-631 renal; 89.8 µM in the assay on NCI/ADR-RES ovarian; 57.3 µM with MDA-MB-435; above 100 µM in the assay on MCF7 breast; above 100 µM in the assay with HOP-18 NSCLC. The values for the TGI in the assay with HS 578T breast and with BT-549 breast were above 100 µM and 65.9 µM, respectively.
In the assay with HOP-18 NSCLC, `O=C(c1ccccc1)C1CCCCN1C(=O)c1ccccc1` (stereo not given) came in with a TGI above 100 µM.
`CCCNCCCC(NC(C)=O)C(=O)NCc1ccccc1` (stereo not given) had a TGI in the assay on RXF-631 renal above 100 µM.
For the molecule `O=C(O)C1C2CCC(O2)C1C(=O)N1CCCCC1` (stereo not given), the TGI was determined as 51.6 µM in the assay on RXF-631 renal and 36.5 µM in the assay on HOP-18 NSCLC.
Consider `COc1cc(/C=C\c2ccccc2)cc(OC)c1OC`, for which the TGI is above 87.1 µM in the assay with RXF-631 renal and above 100 µM in the assay on HOP-18 NSCLC.
In the assay on HOP-18 NSCLC, `O=Cc1ccccc1OCCOc1cc(OCCOc2ccccc2C=O)c(OCCOc2ccccc2C=O)cc1OCCOc1ccccc1C=O` displayed a TGI above 100 µM.
As to `Nc1nc2c(c(=O)[nH]1)NC(CO)CN2` (stereo not given), the TGI in the assay with HOP-18 NSCLC was above 100 µM.
In the case of `CN(C)c1ccc([O-])cc1.CN(C)c1ccc([O-])cc1.CN(C)c1ccc([O-])cc1.CN(C)c1ccc([O-])cc1.[Ti+4]`, the GI50 in the assay on RXF-631 renal and with HOP-18 NSCLC was above 100 µM in each case. For the same molecule, the TGI in the assay with RXF-631 renal and with HOP-18 NSCLC was above 100 µM in each case.
Turning to `O=c1[nH]c(=O)n([C@@H]2C[C@H](CO)[C@H](O)C2)cc1/C=C/Br`, the TGI in the assay on RXF-631 renal and with HOP-18 NSCLC was above 100 µM each time.
`CCc1cccc(C(C)C)c1NC(=O)C(=O)CC(=O)c1c(C)n([O-])c2ccccc2[n+]1=O` displayed a TGI with RXF-631 renal above 100 µM.
In the case of `C1C[OH+]CC[OH+]CCNCC[OH+]CC[OH+]CCN1.[Cl-].[Pt+4]`, in the assay on HOP-18 NSCLC, the GI50 is above 100 µM and the TGI was above 100 µM.
Take `CCCC(=O)Nc1cc(C(=O)N2C[C@@H]3C[C@]34C2=CC(=O)c2[nH]cc(C)c24)n(COC)c1`: the GI50 in the assay with MDA-MB-231 breast is 2.94 µM; with NCI/ADR-RES ovarian, 19.7 µM; in the assay with MDA-MB-435, 3.19 µM; in the assay with HS 578T breast, 4.31 µM; in the assay with MDA-N, 3.66 µM; in the assay on BT-549 breast, 3 µM. In addition, the TGI in the assay on MDA-MB-231 breast was 29.5 µM and 8.01 µM; with NCI/ADR-RES ovarian it was 50 µM and 47.7 µM; with MDA-MB-435 it was 19.2 µM and 12.5 µM; in the assay on MCF7 breast it was 50 µM and 11.9 µM; with HS 578T breast, 38.2 µM and 27.1 µM; in the assay on MDA-N, 19.6 µM and 13.3 µM. For the same molecule, in the assay with BT-549 breast, the TGI is 29.5 µM and 11.3 µM.
Take `CCCCCCCCCCCCCCN`: the TGI in the assay with MDA-MB-231 breast, in the assay on NCI/ADR-RES ovarian, in the assay on MDA-MB-435, with MCF7 breast, with HS 578T breast and in the assay on MDA-N was above 100 µM each time. This molecule also showed a TGI in the assay on BT-549 breast above 100 µM.
On to `CC[C@@]1(O)C[C@H](OC2CC(N(C)C)C(OC3CC(O)C(OC4CCC(=O)C(C)O4)C(C)O3)C(C)O2)c2c(cc3c(c2O)C(=O)c2c(O)cccc2C3=O)[C@H]1C(=O)OC` (stereo not given in full), for which the TGI was 0.198 µM with MDA-MB-231 breast; 0.101 µM with SN12K1 renal; 0.0664 µM with RXF-631 renal; 0.696 µM and 0.878 µM with NCI/ADR-RES ovarian; 0.854 µM and 2.72 µM in the assay with HOP-18 NSCLC; 0.135 µM in the assay on HS 578T breast. Besides, the TGI in the assay with MDA-N is 0.0485 µM and 0.131 µM; with P388/ADR leukemia it was 0.659 µM.
With `Cn1nc(-c2ccccc2)c(C(=O)/C=C/c2ccc(F)cc2)c(N2CCCCC2)c1=O`, the TGI in the assay on RXF-631 renal was found to be 53.6 µM; with HOP-18 NSCLC, 20.6 µM.
As to `CCO/C=C/C(C)C1(C(=O)OCC)CCCCC1=O` (stereo not given), the TGI with RXF-631 renal and in the assay with HOP-18 NSCLC was above 100 µM in each case.
In turn, `CC1CC#CCOC(=O)CCCC1=O` (stereo not given) registered a TGI in the assay with HOP-18 NSCLC above 100 µM.
In the assay with RXF-631 renal, `O=C(Nc1cccc([N+](=O)[O-])c1)C(=O)C(C(=O)c1ccccc1-c1ccccc1)C1OC(=O)c2ccccc21` (stereo not given) returned a TGI of 61.5 µM.
Take `COc1cc(/C=C2\CCC/C(=C\c3cc(OC)c(O)c(OC)c3)C2=O)cc(OC)c1O`: the TGI in the assay with MDA-MB-231 breast is 10.8 µM; in the assay on MDA-MB-435, 75 µM and > 100 µM; with MCF7 breast, 75 µM and > 100 µM; in the assay with HS 578T breast, above 100 µM; with MDA-N, 75 µM and > 100 µM; in the assay on BT-549 breast, 5.92 µM. Further, the values for the GI50 in the assay on MDA-MB-435, in the assay on MCF7 breast and in the assay on MDA-N were 2.57 µM, 4 µM and 2.52 µM, respectively.
Regarding `COc1ccccc1N=C(N)N/N=C/c1c[nH]c2ccccc12`, in the assay with HOP-18 NSCLC, the TGI was found to be 34 µM.

The values are drawn from PubChem BioAssay (NCI).
